A word on the IC50: it is the midpoint of a concentration-inhibition curve.

SMILES strings stand for the structures.

From ChEMBL document CHEMBL3882729, “Receptor-type kinase modulators and methods of use” (2009) come the findings set out here.

The target in assay [1] is Ephrin type-A receptor 2 (Homo sapiens, UniProt P29317). The assay can be described thus: Inhibition of recombinant human N-terminal His6-tagged EphA2 (N598 to R890 residues) expressed in baculovirus using poly-EY as substrate after 180 mins by luciferase coupled chemiluminescence assay.
Ephrin type-A receptor 2, sequence (P29317 whole entry, the tested form may be a part): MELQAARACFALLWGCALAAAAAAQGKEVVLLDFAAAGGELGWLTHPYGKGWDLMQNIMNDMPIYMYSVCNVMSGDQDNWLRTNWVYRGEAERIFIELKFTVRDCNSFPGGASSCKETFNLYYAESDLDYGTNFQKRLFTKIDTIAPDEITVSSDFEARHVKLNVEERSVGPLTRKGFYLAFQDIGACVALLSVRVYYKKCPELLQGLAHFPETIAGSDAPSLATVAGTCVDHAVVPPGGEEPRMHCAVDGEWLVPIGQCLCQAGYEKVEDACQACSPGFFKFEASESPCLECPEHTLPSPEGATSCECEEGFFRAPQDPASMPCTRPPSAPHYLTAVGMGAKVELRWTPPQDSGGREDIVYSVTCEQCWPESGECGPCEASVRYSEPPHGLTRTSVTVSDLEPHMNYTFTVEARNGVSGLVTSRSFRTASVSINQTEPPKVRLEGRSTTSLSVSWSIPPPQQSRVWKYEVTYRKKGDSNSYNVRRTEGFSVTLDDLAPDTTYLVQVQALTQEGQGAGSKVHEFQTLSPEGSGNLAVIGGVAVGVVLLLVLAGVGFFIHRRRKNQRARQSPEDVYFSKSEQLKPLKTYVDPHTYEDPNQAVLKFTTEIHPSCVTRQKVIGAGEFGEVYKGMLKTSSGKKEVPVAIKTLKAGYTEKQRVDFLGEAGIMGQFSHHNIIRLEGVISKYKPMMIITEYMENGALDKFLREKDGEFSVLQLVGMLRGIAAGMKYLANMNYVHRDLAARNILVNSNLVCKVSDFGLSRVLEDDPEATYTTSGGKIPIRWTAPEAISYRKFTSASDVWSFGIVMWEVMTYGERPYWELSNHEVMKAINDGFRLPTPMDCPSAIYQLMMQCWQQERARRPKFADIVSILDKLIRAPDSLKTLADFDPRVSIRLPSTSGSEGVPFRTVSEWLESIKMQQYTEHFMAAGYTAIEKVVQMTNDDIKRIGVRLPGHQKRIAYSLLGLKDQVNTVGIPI
Assay [2] addresses T1, Ephrin type-B receptor 4 (Homo sapiens, UniProt P54760).
T1 sequence (P54760 whole entry): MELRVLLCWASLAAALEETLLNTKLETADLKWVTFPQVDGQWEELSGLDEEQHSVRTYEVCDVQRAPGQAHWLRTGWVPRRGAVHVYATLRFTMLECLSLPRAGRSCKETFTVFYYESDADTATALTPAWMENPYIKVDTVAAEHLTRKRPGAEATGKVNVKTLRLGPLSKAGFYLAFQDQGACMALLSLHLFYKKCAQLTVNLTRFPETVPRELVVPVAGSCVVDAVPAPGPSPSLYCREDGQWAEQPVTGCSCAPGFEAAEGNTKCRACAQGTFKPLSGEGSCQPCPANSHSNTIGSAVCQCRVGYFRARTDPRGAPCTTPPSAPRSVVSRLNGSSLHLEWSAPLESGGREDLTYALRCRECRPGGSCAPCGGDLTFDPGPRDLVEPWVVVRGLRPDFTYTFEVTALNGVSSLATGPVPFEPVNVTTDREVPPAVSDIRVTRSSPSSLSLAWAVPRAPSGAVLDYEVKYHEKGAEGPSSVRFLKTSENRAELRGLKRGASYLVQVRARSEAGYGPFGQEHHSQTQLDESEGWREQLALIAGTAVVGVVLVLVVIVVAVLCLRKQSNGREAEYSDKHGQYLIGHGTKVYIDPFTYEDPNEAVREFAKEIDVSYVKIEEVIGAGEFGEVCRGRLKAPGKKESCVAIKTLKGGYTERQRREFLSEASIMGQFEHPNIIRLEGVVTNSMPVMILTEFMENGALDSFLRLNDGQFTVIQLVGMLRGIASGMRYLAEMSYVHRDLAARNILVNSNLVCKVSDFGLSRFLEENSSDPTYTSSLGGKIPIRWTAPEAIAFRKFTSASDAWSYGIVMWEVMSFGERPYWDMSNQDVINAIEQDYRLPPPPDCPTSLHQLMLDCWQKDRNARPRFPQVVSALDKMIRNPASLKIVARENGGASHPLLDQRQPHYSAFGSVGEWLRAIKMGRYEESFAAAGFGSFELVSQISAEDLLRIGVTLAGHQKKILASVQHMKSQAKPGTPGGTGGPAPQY
Put plainly: Inhibition of recombinant human N-terminal His6-tagged EphB4 kinase domain (E605 to E890 residues) expressed in baculovirus using poly-AEKY as substrate after 150 mins in presence of gamma33P-ATP by liquid scintillation spectrometry.

In assay [3] the target is Receptor tyrosine-protein kinase erbB-2 (Homo sapiens, UniProt P04626). Put plainly: Inhibition of recombinant human N-terminal GST His6-tagged thrombin cleavage site-fused ErbB2 kinase domain (Q679 to V1255 residues) expressed in baculovirus infected insect Sf9 cells using biotinylated poly-EY as substrate after 60 mins by alphascreen assay. In general terms: Bead proximity is the source of the signal in Alpha formats.
Receptor tyrosine-protein kinase erbB-2, sequence (P04626 whole entry, the tested form may be a part): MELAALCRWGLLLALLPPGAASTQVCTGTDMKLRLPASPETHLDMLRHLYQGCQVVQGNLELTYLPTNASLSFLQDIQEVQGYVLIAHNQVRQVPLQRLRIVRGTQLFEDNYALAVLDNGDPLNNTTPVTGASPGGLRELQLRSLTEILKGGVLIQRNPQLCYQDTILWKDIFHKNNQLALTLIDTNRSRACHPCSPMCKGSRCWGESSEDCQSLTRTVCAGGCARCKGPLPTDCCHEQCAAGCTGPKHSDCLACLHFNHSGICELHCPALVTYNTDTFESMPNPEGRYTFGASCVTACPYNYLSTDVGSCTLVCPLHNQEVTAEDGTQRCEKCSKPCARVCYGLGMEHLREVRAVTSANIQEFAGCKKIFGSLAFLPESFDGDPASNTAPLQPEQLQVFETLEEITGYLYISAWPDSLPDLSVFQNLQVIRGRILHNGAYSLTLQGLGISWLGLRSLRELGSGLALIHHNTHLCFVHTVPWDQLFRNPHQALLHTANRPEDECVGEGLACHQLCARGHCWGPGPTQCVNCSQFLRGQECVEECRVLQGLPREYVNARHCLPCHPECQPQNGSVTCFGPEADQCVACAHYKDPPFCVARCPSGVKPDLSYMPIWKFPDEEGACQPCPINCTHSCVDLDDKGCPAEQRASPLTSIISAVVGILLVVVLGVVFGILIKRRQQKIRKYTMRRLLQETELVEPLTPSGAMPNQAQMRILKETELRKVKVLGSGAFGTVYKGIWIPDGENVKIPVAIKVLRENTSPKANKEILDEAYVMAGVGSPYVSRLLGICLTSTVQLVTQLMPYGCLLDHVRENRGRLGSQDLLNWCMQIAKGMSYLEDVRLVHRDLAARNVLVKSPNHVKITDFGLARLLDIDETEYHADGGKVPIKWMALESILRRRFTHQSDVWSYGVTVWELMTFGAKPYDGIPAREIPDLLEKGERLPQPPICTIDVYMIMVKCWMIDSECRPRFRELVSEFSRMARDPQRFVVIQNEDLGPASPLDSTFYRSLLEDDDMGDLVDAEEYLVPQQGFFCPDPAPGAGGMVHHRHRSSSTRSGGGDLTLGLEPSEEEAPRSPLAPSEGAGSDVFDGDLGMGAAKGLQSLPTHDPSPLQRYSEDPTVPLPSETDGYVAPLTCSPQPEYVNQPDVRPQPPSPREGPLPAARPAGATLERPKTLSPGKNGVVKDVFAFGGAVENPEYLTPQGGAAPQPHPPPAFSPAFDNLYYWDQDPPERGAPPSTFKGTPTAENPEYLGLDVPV

In assay [4] the target is Vascular endothelial growth factor receptor 2 (Homo sapiens, UniProt P35968). Put plainly: Inhibition of recombinant human N-terminal GST-fused KDR (D807 to V1356 residues) expressed in baculovirus infected […] insect Sf9 cells using poly-EY as substrate after 240 mins by luciferase coupled chemiluminescence assay.
Vascular endothelial growth factor receptor 2, sequence (P35968 whole entry, the tested form may be a part): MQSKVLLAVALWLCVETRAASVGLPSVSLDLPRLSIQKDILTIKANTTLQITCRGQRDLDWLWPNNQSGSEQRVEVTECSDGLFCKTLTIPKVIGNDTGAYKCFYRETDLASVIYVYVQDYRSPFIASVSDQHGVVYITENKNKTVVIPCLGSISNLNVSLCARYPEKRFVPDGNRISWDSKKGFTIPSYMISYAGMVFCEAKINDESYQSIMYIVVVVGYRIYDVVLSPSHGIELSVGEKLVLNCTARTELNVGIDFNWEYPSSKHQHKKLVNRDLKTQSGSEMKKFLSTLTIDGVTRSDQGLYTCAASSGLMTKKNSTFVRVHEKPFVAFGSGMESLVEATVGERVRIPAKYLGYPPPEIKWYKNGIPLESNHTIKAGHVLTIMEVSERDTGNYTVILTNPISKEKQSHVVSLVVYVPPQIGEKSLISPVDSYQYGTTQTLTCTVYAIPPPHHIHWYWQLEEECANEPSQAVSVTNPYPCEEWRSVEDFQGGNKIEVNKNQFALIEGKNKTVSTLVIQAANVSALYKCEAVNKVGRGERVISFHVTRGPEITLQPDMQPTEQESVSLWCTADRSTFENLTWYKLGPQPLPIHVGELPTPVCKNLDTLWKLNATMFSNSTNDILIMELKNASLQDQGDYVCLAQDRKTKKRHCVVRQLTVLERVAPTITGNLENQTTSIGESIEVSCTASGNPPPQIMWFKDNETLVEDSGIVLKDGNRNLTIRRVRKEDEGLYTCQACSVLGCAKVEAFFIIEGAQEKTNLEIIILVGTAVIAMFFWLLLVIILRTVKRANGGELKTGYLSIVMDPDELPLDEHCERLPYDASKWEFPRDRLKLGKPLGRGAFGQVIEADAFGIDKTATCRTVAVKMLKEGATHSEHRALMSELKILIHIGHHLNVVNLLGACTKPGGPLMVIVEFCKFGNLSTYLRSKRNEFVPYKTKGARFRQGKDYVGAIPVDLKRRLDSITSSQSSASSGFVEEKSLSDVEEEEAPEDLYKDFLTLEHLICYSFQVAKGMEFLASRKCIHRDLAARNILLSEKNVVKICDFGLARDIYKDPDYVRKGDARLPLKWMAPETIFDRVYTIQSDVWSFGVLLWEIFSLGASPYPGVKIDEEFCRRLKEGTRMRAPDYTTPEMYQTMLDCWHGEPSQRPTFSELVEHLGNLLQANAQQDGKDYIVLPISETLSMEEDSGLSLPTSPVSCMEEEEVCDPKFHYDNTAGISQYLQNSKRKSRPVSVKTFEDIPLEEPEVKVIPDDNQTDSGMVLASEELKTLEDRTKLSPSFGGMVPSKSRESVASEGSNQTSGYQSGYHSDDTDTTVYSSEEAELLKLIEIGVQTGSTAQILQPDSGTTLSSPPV
The target of assay [5] is Vascular endothelial growth factor receptor 1 (Homo sapiens, UniProt P17948). Put plainly: Inhibition of recombinant human N-terminal GST-tagged factor 10a cleavage site-fused Flt1 (K784 to I1338 residues) expressed in baculovirus infected insect Sf9 cells using poly-EY as substrate after 120 mins in presence of gamma33P-ATP by liquid scintillation spectrometry.
Vascular endothelial growth factor receptor 1, sequence (P17948 whole entry, the tested form may be a part): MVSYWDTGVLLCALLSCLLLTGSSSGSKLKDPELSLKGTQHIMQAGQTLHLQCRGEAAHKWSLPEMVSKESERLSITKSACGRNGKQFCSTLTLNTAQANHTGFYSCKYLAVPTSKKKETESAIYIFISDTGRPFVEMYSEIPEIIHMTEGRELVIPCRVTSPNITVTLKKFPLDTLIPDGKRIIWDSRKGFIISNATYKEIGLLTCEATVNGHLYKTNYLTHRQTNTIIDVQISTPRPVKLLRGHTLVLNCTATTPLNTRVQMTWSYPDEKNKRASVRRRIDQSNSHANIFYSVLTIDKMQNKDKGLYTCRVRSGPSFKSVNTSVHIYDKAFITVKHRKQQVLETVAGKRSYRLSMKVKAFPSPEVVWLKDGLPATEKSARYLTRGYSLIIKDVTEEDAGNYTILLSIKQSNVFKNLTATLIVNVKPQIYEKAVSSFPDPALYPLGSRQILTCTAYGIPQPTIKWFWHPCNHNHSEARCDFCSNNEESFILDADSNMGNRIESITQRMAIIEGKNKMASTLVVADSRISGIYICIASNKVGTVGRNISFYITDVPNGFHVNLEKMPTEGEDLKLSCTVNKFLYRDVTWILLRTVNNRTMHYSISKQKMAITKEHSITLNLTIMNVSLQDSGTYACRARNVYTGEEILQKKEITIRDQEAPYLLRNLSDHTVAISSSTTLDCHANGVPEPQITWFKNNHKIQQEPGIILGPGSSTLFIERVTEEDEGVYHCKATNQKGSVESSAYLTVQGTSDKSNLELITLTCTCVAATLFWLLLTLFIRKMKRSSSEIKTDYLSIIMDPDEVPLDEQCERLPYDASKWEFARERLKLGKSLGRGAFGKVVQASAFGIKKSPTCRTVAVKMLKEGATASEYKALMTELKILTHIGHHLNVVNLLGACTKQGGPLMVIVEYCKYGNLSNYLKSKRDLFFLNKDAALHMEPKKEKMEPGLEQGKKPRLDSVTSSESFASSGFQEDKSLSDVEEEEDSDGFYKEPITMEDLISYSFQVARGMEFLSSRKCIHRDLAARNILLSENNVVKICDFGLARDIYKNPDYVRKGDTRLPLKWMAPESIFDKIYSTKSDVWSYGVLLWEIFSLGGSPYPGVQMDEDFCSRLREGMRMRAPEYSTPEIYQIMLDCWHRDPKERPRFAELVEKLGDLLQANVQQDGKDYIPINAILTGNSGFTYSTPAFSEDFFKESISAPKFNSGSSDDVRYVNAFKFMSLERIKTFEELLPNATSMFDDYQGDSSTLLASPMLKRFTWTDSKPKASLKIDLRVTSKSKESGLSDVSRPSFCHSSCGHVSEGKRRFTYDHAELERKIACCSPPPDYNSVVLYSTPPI

For `COc1cc2c(Nc3cc(Cl)c(Cl)cc3F)ncnc2cc1OC[C@@H]1CN2CCC[C@H]2CO1`, the IC50 is less than 50 nM in assay [1]; less than 50 nM in assay [2]; 50 to 1000 nM in assay [3]; less than 50 nM in assay [4]; 50 to 1000 nM in assay [5].

For the compound `COc1cc2c(Nc3ccc(Br)c(Cl)c3Cl)ncnc2cc1OC[C@@H]1CO[C@H]2[C@@H]1OC[C@@H]2OC`, the IC50 in assay [3] and in assay [5] was 1000 to 20000 nM in each case.

`COc1cc2c(Nc3ccc(Cl)c(Cl)c3F)ncnc2cc1OC[C@H]1CN2CCOC[C@H]2CO1`: the IC50 in assay [1] is 50 to 1000 nM; in assay [2], less than 50 nM; in assay [3], 50 to 1000 nM; in assay [4], less than 50 nM; in assay [5] it was 50 to 1000 nM.

Regarding `COc1cc2c(Nc3ccc(Br)c(Cl)c3Cl)ncnc2cc1OC[C@@H]1CN2CCOC[C@H]2CO1`, the IC50 in assay [1] was 50 to 1000 nM; in assay [2], less than 50 nM; in assay [3] it was 1000 to 20000 nM; in assay [4], 50 to 1000 nM; in assay [5], 50 to 1000 nM.

`COc1cc2c(Nc3ccc(Cl)c(Cl)c3)ncnc2cc1OC1C[C@@H]2CN(C)C[C@@H]2C1` (stereo partly drawn): the IC50 in assay [1] lay in the range of 50 to 1000 nM; in assay [2], 50 to 1000 nM; in assay [3], 50 to 1000 nM; in assay [4], 50 to 1000 nM; in assay [5], 1000 to 20000 nM.

On to `COc1cc2c(Nc3ccc(Br)c(Cl)c3F)ncnc2cc1OC[C@@H]1CN2CCC[C@H]2CO1`, for which the half-inhibitory concentration (IC50) is less than 50 nM in assay [1]; less than 50 nM in assay [2]; 50 to 1000 nM in assay [3]; less than 50 nM in assay [4]; less than 50 nM in assay [5].

As for `COc1cc2c(Nc3cc(Cl)c(Br)cc3F)ncnc2cc1OC[C@@H]1CN2CCOC[C@H]2CO1`, the IC50 in assay [1] is 50 to 1000 nM; in assay [2] it was less than 50 nM; in assay [3] it was 50 to 1000 nM; in assay [4], 50 to 1000 nM; in assay [5], 50 to 1000 nM.

For `COc1cc2c(Nc3ccc(Br)c(Cl)c3F)ncnc2cc1OC[C@@H]1CN2CCOC[C@H]2CO1`, the IC50 in assay [1], in assay [2], in assay [3], in assay [4] and in assay [5] was less than 50 nM in each case.

In the case of `COc1cc2c(Nc3ccc(Cl)c(Cl)c3)ncnc2cc1OC[C@@H]1CN2CCC[C@@H]2CO1`, the IC50 in assay [1] was less than 50 nM; in assay [2] it was less than 50 nM; in assay [3], less than 50 nM; in assay [4], less than 50 nM; in assay [5], 50 to 1000 nM.

On to `COc1cc2c(Nc3ccc(Cl)c(Cl)c3)ncnc2cc1OCC1CN2CSC[C@H]2CO1` (stereo partly drawn), for which the IC50 in assay [1], in assay [4] and in assay [5] was 50 to 1000 nM throughout.

For the compound `COc1cc2c(Nc3ccc(Br)c(Cl)c3Cl)ncnc2cc1OC[C@@H]1CN2CCC[C@H]2CO1`, the concentration for half-maximal inhibition (IC50) was less than 50 nM in assay [1]; less than 50 nM in assay [2]; 50 to 1000 nM in assay [3]; less than 50 nM in assay [4]; 50 to 1000 nM in assay [5].

For `COc1cc2c(Nc3ccc(Cl)c(Cl)c3)ncnc2cc1OC[C@H]1CN2CCC[C@@H]2CO1`, the IC50 was 50 to 1000 nM in assay [1]; less than 50 nM in assay [2]; 50 to 1000 nM in assay [3]; less than 50 nM in assay [4]; 50 to 1000 nM in assay [5].

Turning to `COc1cc2c(Nc3ccc(Cl)c(Cl)c3)ncnc2cc1OC[C@@H]1CN2CCC[C@H]2CO1`, the IC50 was less than 50 nM in assay [1]; less than 50 nM in assay [2]; 50 to 1000 nM in assay [3]; less than 50 nM in assay [4]; 50 to 1000 nM in assay [5].

With `COc1cc2c(Nc3ccc(Cl)c(Cl)c3)ncnc2cc1OCC1CN2CCOCC2CO1` (stereo not drawn), the IC50 in assay [1] was 50 to 1000 nM; in assay [2], less than 50 nM; in assay [3], less than 50 nM; in assay [4] it was less than 50 nM; in assay [5] it was 50 to 1000 nM.

For `COc1cc2c(Nc3ccc(Cl)c(Cl)c3F)ncnc2cc1OC[C@@H]1CN2CCC[C@H]2CO1`, the IC50 is less than 50 nM in assay [1]; less than 50 nM in assay [2]; 50 to 1000 nM in assay [3]; less than 50 nM in assay [4]; 50 to 1000 nM in assay [5].

On to `COc1cc2c(Nc3ccc(Cl)c(Cl)c3F)ncnc2cc1OC[C@@H]1C[C@@H]2CN(C)C[C@@H]2C1` [TESEVATINIB], for which the IC50 in assay [1] is less than 50 nM; in assay [2], less than 50 nM; in assay [3] it was less than 50 nM; in assay [4], less than 50 nM; in assay [5] it was 50 to 1000 nM.

For `COc1cc2c(Nc3ccc(Cl)c(Cl)c3)ncnc2cc1OC[C@H]1CN2CCC[C@H]2CO1`, the half-inhibitory concentration (IC50) was less than 50 nM in assay [1]; less than 50 nM in assay [2]; less than 50 nM in assay [3]; less than 50 nM in assay [4]; 50 to 1000 nM in assay [5].

In the case of `COc1cc2c(Nc3ccc(F)c(Cl)c3F)ncnc2cc1OC[C@@H]1CN2CCOC[C@H]2CO1`, the half-inhibitory concentration (IC50) is 50 to 1000 nM in assay [1]; less than 50 nM in assay [2]; 50 to 1000 nM in assay [3]; 50 to 1000 nM in assay [4]; 50 to 1000 nM in assay [5].

As for `COc1cc2c(Nc3ccc(Br)c(Cl)c3F)ncnc2cc1OC[C@@H]1CN2CCC[C@H]2C(=O)N1`, the half-inhibitory concentration (IC50) was 50 to 1000 nM in assay [1]; less than 50 nM in assay [2]; 1000 to 20000 nM in assay [3]; less than 50 nM in assay [4]; 50 to 1000 nM in assay [5].

Turning to `COc1cc2c(Nc3ccc(Br)c(Cl)c3F)ncnc2cc1OC[C@H]1CN2CCOC[C@H]2CO1`, the IC50 is 50 to 1000 nM in assay [1]; 50 to 1000 nM in assay [2]; 50 to 1000 nM in assay [3]; less than 50 nM in assay [4]; 50 to 1000 nM in assay [5].

On to `COc1cc2c(Nc3cc(Cl)c(Br)cc3F)ncnc2cc1OC[C@@H]1CN2CCC[C@H]2CO1`, for which the IC50 in assay [1] was less than 50 nM; in assay [2], less than 50 nM; in assay [3] it was 50 to 1000 nM; in assay [4] it was less than 50 nM; in assay [5], 50 to 1000 nM.

`COc1cc2c(Nc3cc(Cl)c(Cl)cc3F)ncnc2cc1OC[C@@H]1CN2CCOC[C@H]2CO1`: the IC50 is 50 to 1000 nM in assay [1]; less than 50 nM in assay [2]; 50 to 1000 nM in assay [3]; 50 to 1000 nM in assay [4]; 50 to 1000 nM in assay [5].

Turning to `COc1cc2c(Nc3cc(Cl)c(Cl)cc3F)ncnc2cc1OC[C@H]1CN2CCOC[C@H]2CO1`, the IC50 in assay [1], in assay [2], in assay [3], in assay [4] and in assay [5] was 50 to 1000 nM each time.

Take `COc1cc2c(Nc3ccc(Cl)c(Cl)c3F)ncnc2cc1OC[C@@H]1CN2CCOC[C@H]2CO1`: the IC50 in assay [1], in assay [2], in assay [3], in assay [4] and in assay [5] was less than 50 nM throughout.

On to `COc1cc2c(Nc3ccc(F)c(Cl)c3F)ncnc2cc1OC[C@H]1CN2CCOC[C@H]2CO1`, for which the IC50 in assay [1], in assay [2], in assay [3], in assay [4] and in assay [5] was 50 to 1000 nM throughout.

On to `COc1cc2c(Nc3ccc(F)c(Cl)c3F)ncnc2cc1OC[C@@H]1CN2CCC[C@H]2CO1`, for which the IC50 in assay [1] is less than 50 nM; in assay [2], less than 50 nM; in assay [3], 50 to 1000 nM; in assay [4] it was 50 to 1000 nM; in assay [5] it was 50 to 1000 nM.

Consider `COc1cc2c(Nc3ccc(Cl)c(Cl)c3F)ncnc2cc1OC[C@@H]1CN2CCC[C@H]2C(=O)N1`, for which the IC50 in assay [1] was 50 to 1000 nM; in assay [4] it was less than 50 nM; in assay [5], 50 to 1000 nM.
